According to patent US20100041612A1, “Fragments of the Glucagon-Like Peptide-1 and Uses Thereof” (priority 2005, published 2010):
Square brackets hold non-standard residues; d marks the D form. Peptide text beside a SMILES is read from it. Bip = N[C@@H](Cc1ccc(-c2ccccc2)cc1)C(=O)O

Legend:
[1] = tested on: hyperactive human GLP-1 receptor variant; experiment: Peptide induced cAMP production (radioimmunoassay) in COS-7 cells transfected with hyperactive GLP-1 receptor variant; assay type: cell-based; conditions: for EC50: COS-7 cells, hyperactive human GLP-1 receptor variant
Description: The same peptides were used as described above, with the underivatized GLP-1 (7-20) amide represented in FIG. 1B with closed squares (“−bpa”) and the GLP-1 (7-20) carboxy-terminal tethered with a small molecule, biphenylalanine, represented by open squares (“+bpa”).

[2] = tested on: Zucker diabetic fatty (ZDF) rats; experiment: Preclinical trial protocol in Zucker diabetic fatty (ZDF) rats: blood glucose and islet cell mass; assay type: in vivo, rat; conditions: versus saline; for blood glucose levels: 1 μg/kg/day to 100 mg/kg/day; for islet cell mass in pancreases: histology
Method: In this example, qualified animal models for diabetes are employed to examine the dose ranges of GLP-1 (7-20).
Treatment with GLP-1 (7-20) Animal Model. Zucker diabetic fatty (ZDF) rats are a well characterized type 2 diabetes animal model. (Suh Y H, et al. J Mol. Endocrinol. 2005 April; 34(2):299-315.)
Doses of GLP-1 (7-20) range from 1 μg/kg/day to 100 mg/kg/day.
Treatment. Cohorts are treated in 2 arms with 2-4 dose ranges of GLP-1 (7-20) amide and a placebo, at a compensated dose for animal size, metabolism and circulation. Arm 1: saline, Arm 2: GLP-1 (7-20) amide.
Study Assessment. Blood glucose levels are measured every week with a One Touch II glucose meter (Lifescan). Blood insulin levels are also measured. Rats are considered diabetic after 2 consecutive blood glucose measurements over 300 mg/dl. For histological analysis, pancreases are snap-frozen. Multiple 5-μm sections are stained with hematoxylin and eosin and scored blindly for islet cell mass as known in the art. […]
Animal Model. Zucker diabetic fatty (ZDF) rats are a well characterized type 2 diabetes animal model. (Suh Y H, et al. J Mol Endocrinol. 2005 April; 34(2):299-315.) […]
Treatment. Cohorts are treated in 6 arms with 2-4 dose ranges of each drug and a placebo, at a compensated dose for animal size, metabolism and circulation. Arm 1: saline, Arm 2: GLP-1 (7-20)−bpa; Arm 3: GLP-1 (7-20)+bpa; Arm 4: GLP-1 (7-20)−bpa plus pravastatin; Arm 5: GLP-1 (7-20)+bpa plus pravastatin; Arm 6: GLP-1 (7-20)−bpa plus GLP-1 (7-20)+bpa plus pravastatin.
Study Assessment. Blood glucose levels are measured every week with a One Touch II glucose meter (Lifescan). Blood insulin levels are also measured. Rats are considered diabetic after 2 consecutive measurements over 300 mg/dl. For histological analysis, pancreases are snap-frozen. Multiple 5-μm sections are stained with hematoxylin and eosin and scored blindly for islet cell mass as known in the art.

[3] = target: wild-type human GLP-1 receptor (Homo sapiens, UniProt P43220); experiment: Peptide induced cAMP production (radioimmunoassay) in COS-7 cells transfected with wild-type GLP-1 receptor
wild-type human GLP-1 receptor, sequence (P43220 24-463): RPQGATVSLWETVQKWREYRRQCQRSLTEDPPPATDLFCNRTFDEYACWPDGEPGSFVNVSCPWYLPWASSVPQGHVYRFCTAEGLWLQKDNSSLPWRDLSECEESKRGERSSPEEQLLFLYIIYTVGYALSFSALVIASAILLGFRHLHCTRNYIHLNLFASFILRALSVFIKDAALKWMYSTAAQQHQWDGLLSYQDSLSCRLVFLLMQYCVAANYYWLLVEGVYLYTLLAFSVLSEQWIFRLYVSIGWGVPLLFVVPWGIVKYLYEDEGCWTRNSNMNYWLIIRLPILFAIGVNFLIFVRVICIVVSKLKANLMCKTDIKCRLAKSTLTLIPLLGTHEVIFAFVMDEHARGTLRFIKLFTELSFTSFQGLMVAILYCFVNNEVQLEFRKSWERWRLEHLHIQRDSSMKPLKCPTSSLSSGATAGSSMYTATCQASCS
Method: COS-7 cells were transiently transfected with cDNA encoding the wild-type human GLP-1 receptor. Peptide induced cAMP production was measured by radioimmunoassay.

## CC(C)C[C@H](NC(=O)[C@H](Cc1ccc(O)cc1)NC(=O)[C@H](CO)NC(=O)[C@H](CO)NC(=O)[C@@H](NC(=O)[C@H](CC(=O)O)NC(=O)[C@H](CO)NC(=O)[C@@H](NC(=O)[C@H](Cc1ccccc1)NC(=O)[C@@H](NC(=O)CNC(=O)[C@H](CCC(=O)O)NC(=O)[C@H](C)NC(=O)[C@@H](N)Cc1c[nH]cn1)[C@@H](C)O)[C@@H](C)O)C(C)C)C(=O)N[C@@H](Cc1ccc(-c2ccccc2)cc1)C(N)=O [GLP-1 (7-20)+bpa] (H-HAEGTFTSDVSSYL[Bip]-NH2; N-terminus and C-terminus assumed)
[1]
  EC50: 2 µM
[1]; hyperactive receptor, +bpa versus -bpa
  higher potency than GLP-1 (7-20) amide -bpa at the hyperactive receptor: 10 fold
[2]
  blood glucose levels: pronounced reduction
  islet cell mass in pancreases: increased
[3]; versus underivatized GLP-1 (7-20) amide, wild-type receptor
  potency increase by carboxy-terminal tethering of biphenylalanine: 22 fold

## CC(C)C[C@H](NC(=O)[C@H](Cc1ccc(O)cc1)NC(=O)[C@H](CO)NC(=O)[C@H](CO)NC(=O)[C@@H](NC(=O)[C@H](CC(=O)O)NC(=O)[C@H](CO)NC(=O)[C@@H](NC(=O)[C@H](Cc1ccccc1)NC(=O)[C@@H](NC(=O)CNC(=O)[C@H](CCC(=O)O)NC(=O)[C@H](C)NC(=O)[C@@H](N)Cc1c[nH]cn1)[C@@H](C)O)[C@@H](C)O)C(C)C)C(N)=O [GLP-1 (7-20) amide] (H-HAEGTFTSDVSSYL-NH2; N-terminus assumed)
[1]
  EC50: 24 µM
[1]; hyperactive versus wild type receptor
  potency increase compared to the function of this peptide at the wild type receptor: 10 fold
[2]
  blood glucose levels: pronounced reduction
  islet cell mass in pancreases: increased
[3]; statement referring to Example 1
  affinity for the GLP-1 receptor compared with full length GLP-1: lower affinity than full length GLP-1
